Test results from paper PMC3763859 (ACS medicinal chemistry letters, 2013).

Test system: SK-BR-3 cells
Test: synergy studies with c-Src inhibitor 1 in SK-BR-3
Format: cell-based
Conditions: 2 μM 1, 10 nM panobinostat

Structure (SMILES): Cc1[nH]c2ccccc2c1CCNCc1ccc(/C=C/C(=O)NO)cc1 [panobinostat]
- synergy with c-Src inhibitor 1: highly synergistic
